Experimental data from US9492546B2, “Use of bethanechol for treatment of Xerostomia” (Acacia Pharma Limited, priority 2011, dated 2016).

Experiments:
rabbits = test: Blood pressure and heart rate in anaesthetised rabbits (separate experiment); assay type: in vivo, rabbit; conditions: intravenous, dose-related at 30, 100 and 300 μg/kg
Excerpt: In a further, separate experiment, formulation 14C and its matching placebo were given to 3 anaesthetised rabbits in which blood pressure, via an indwelling cannula in the carotid artery, was monitored, along with heart rate.

[1] = cited from earlier work
patients with xerostomia = conditions: administered orally, small number of clinical studies; cited from earlier work
healthy volunteers = test: Phase 1 study, formulation applied topically to the oral mucosa; assay type: in vivo, human; conditions: oral and oromucosal
Procedure: In a Phase 1 study involving four healthy volunteers, Formulation 14C applied topically to the oral mucosa at doses up to 20 mg, kept in situ for two minutes.
This local absorption is likely to deliver enough bethanechol to the minor salivary glands, numbering in the hundreds to thousands and located immediately below the oral mucosa, to stimulate them to produce mucin-rich saliva which is disproportionately important for ensuring a comfortable month feel. When added to the salivary stimulation achieved by oral ingestion of bethanechol, it may reasonably be concluded that the formulation can produce better relief from xerostomia, with fewer side-effects, than purely systemic dosing of bethanechol.

[2] = tested on: New Zealand White rabbits; test: Heart rate in anaesthetised rabbits, topical formulations versus IV bethanechol; assay type: in vivo, rabbit; conditions: range of doses
Excerpt: More specifically, adult male New Zealand White rabbits, of approximate body weight 2.0 to 3 kg, were allocated in groups of three to be treated with formulations of bethanechol given in Table 1, designated 2, 6, 9 and 14C, along with each of their matching placebos. Animals were anaesthetised with urethane, administered IP, and heart rate was monitored via ECG leads. They were placed in the prone position after being anaesthetised (this inhibits the drug from entering the GI tract). Salivation was measured by inserting pre-weighed cotton wool balls into the oral cavity, removing after five or ten minutes and weighing. The difference in weight provided an estimate of salivary flow.
At the end of the experiment, one animal from each group was given bethanechol intravenously at a range of doses, in order to produce a dose-response curve for heart rate. This was compared to the effect of the active formulations, when given topically, on heart rate.

[3] = cited from earlier work; remark: listed apart in the source

In the case of `CC(C[N+](C)(C)C)OC(N)=O` (centres unmarked) [bethanechol chloride, Bethanechol chloride], the “Effect on blood pressure” value (rabbits) is given as “reduced”, the “Effect on heart rate” value (rabbits) is given as “reduced” and the “Penetration into the CNS” value ([1]; at therapeutic doses) is given as “does not significantly penetrate into the CNS”. For the same compound, the “Absorption from the GI tract” value ([1]; in vivo) was “only poorly absorbed”, the Salivary flow (patients with xerostomia) was “increase salivary flow” and the “Pharmacokinetics (linearity)” value (healthy volunteers) was “linear”. For the same compound, the “Effect on heart rate” value [2] was “marked and dose-dependent bradycardia” and the aqueous solubility [3] was “high”.
